From ChEMBL document CHEMBL5465560, “Selectivity Literature for EUbOPEN Chemogenomic Library” (2024) come the findings set out here.

Experiment [1] concerns the target Calcium/calmodulin-dependent protein kinase type II subunit alpha (Homo sapiens, UniProt Q9UQM7). The experiment in a line: Selectivity interaction (Kinase panel (Z-LYTE Assay)) EUB0001632a CAMK2A. Conditions: at 10 µM.
Experiment [2] addresses Type-2 angiotensin II receptor (Homo sapiens) (UniProt P50052). The experiment in a line: Selectivity interaction (Eurofins CEREP Diversity Profile (receptors and ion channels)) EUB0000279b AGTR2. As to conditions: at 10 µM.
The target of experiment [3] is Glycogen synthase kinase-3 beta (Homo sapiens, UniProt P49841). The experiment in a line: Selectivity interaction (KinomeScan (DiscoverX)) EUB0000695a GSK3B. As to conditions: at 100 nM.
Experiment [4] has as its target cAMP-dependent protein kinase catalytic subunit alpha (Homo sapiens, UniProt P17612). The experiment in a line: Selectivity interaction (KinomeScan (DiscoverX)) EUB0000666a PRKACA. As to conditions: at 10 µM.
Experiment [5] deals with T1, Inhibitor of nuclear factor kappa-B kinase subunit beta (Homo sapiens) (UniProt O14920).
T1 sequence (whole entry): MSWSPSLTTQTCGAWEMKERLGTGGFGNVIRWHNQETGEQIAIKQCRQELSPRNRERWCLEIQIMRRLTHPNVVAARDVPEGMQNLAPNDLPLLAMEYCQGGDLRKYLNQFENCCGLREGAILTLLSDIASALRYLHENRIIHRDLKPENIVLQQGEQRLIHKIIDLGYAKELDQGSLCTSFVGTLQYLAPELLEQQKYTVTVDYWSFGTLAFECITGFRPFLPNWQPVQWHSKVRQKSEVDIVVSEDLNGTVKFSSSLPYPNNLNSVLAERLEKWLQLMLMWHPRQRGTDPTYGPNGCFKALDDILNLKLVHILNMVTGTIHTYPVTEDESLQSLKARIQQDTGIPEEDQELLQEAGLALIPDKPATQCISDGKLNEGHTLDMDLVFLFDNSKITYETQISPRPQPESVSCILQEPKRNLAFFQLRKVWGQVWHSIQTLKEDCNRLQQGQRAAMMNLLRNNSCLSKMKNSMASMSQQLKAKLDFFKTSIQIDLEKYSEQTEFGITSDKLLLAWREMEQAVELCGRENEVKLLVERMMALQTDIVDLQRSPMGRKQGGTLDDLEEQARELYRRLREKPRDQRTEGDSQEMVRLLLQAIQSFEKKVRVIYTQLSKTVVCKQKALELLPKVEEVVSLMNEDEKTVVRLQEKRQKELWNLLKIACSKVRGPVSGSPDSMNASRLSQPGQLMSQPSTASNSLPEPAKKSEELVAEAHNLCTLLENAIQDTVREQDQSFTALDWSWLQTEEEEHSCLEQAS
The experiment in a line: Selectivity interaction (KinomeScan (DiscoverX)) EUB0000607a IKBKB. As to conditions: at 10 µM.

Experiment [6] deals with T2, Serine/threonine-protein kinase Nek8 (Homo sapiens) (UniProt Q86SG6).
T2 sequence (whole entry): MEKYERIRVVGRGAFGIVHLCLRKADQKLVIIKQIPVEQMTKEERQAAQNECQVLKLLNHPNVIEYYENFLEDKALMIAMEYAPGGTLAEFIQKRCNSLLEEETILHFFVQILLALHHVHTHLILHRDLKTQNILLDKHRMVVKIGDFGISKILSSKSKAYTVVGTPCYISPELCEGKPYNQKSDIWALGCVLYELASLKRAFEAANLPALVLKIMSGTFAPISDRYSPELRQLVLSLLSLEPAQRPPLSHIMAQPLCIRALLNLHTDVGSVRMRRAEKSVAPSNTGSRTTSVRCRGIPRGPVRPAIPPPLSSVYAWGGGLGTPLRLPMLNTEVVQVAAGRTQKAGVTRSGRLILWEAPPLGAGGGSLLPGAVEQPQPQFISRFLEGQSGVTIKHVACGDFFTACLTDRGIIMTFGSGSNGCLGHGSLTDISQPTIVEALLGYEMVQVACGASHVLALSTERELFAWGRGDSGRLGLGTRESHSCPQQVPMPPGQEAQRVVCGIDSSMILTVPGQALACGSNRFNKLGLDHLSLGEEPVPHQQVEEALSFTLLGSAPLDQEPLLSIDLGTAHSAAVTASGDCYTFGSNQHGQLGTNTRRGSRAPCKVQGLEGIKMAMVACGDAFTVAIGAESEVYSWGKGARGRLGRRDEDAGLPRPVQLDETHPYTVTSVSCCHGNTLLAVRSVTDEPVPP
The experiment in a line: Selectivity interaction (ActivX KiNativ screen (kinase selectivity in THP-1 cell lysates)) EUB0000639a NEK8. The experiment is classed as subcellular. As to conditions: lysate.

Experiment [7] concerns the target Serine/threonine-protein kinase N1 (Homo sapiens, UniProt Q16512). The experiment in a line: Selectivity interaction (ActivX KiNativ screen (kinase selectivity in THP-1 cell lysates)) EUB0000639a PKN1. The experiment is classed as subcellular. As to conditions: lysate.
For experiment [8], the target named is Histone-lysine N-methyltransferase SETD2 (Homo sapiens) (UniProt Q9BYW2). Conditions: at 10 µM.
In experiment [9] the target is T3, NUAK family SNF1-like kinase 2 (Homo sapiens) (UniProt Q9H093).
T3 sequence (whole entry): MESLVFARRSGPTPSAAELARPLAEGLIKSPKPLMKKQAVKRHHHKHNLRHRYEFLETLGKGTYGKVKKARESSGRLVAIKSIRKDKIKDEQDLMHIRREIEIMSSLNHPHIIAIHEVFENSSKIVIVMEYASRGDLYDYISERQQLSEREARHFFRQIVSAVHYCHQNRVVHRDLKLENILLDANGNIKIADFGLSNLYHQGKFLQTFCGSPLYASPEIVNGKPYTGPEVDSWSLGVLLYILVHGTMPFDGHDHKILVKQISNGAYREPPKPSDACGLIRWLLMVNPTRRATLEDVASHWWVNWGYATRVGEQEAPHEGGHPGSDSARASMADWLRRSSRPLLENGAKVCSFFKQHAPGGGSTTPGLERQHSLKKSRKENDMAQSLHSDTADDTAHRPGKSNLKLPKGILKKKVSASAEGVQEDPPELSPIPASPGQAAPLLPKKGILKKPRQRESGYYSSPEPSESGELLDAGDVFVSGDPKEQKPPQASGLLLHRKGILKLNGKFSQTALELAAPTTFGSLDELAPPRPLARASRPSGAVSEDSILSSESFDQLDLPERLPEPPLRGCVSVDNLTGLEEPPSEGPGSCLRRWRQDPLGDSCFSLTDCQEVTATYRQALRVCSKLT
The experiment in a line: Selectivity interaction (KinomeScan (DiscoverX)) EUB0001049a NUAK2. Conditions: at 1 µM.

Experiment [10] has as its target Serine/threonine-protein kinase SIK2 (Homo sapiens) (UniProt Q9H0K1). The experiment in a line: Selectivity interaction (Kinase panel (Carna Biosciences)) EUB0001542aTs SIK2. As to conditions: at 1 µM.
In experiment [11] the target is Macrophage colony-stimulating factor 1 receptor (Homo sapiens) (UniProt P07333). The experiment in a line: Selectivity interaction (Kinase panel (Carna Biosciences)) EUB0001542aTs CSF1R. As to conditions: at 1 µM.
In experiment [12] the target is Cyclin-dependent kinase 11B (Homo sapiens) (UniProt P21127). The experiment in a line: Selectivity interaction (KinomeScan (DiscoverX)) EUB0001079a CDK11B. As to conditions: at 1 µM.

Chain of Serine/threonine-protein kinase N1 (Q16512 2-942 limits assumed): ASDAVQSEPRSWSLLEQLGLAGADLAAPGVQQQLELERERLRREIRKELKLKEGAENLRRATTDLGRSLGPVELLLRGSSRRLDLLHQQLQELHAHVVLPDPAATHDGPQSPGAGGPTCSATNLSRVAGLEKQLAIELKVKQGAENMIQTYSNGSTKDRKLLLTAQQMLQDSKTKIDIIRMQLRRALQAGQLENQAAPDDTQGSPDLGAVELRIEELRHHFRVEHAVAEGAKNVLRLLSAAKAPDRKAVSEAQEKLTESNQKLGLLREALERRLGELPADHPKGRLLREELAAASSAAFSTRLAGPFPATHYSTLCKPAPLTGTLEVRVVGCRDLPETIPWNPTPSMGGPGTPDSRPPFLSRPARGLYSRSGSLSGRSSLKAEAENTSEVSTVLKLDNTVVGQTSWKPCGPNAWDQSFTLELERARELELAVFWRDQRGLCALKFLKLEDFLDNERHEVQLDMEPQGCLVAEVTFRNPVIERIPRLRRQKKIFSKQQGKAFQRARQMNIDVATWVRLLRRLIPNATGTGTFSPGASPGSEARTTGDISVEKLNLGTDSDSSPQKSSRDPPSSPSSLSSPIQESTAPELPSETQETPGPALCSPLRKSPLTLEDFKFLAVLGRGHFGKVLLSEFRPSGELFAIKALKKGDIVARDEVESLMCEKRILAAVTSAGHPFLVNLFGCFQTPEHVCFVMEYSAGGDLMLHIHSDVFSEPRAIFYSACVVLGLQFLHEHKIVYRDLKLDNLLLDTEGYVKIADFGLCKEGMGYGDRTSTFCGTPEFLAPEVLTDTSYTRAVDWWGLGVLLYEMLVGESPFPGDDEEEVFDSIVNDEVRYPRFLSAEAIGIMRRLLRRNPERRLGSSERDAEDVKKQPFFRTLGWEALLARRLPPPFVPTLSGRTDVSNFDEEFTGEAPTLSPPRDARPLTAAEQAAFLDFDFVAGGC
Chain of Histone-lysine N-methyltransferase SETD2 (Homo sapiens) (Q9BYW2 whole entry): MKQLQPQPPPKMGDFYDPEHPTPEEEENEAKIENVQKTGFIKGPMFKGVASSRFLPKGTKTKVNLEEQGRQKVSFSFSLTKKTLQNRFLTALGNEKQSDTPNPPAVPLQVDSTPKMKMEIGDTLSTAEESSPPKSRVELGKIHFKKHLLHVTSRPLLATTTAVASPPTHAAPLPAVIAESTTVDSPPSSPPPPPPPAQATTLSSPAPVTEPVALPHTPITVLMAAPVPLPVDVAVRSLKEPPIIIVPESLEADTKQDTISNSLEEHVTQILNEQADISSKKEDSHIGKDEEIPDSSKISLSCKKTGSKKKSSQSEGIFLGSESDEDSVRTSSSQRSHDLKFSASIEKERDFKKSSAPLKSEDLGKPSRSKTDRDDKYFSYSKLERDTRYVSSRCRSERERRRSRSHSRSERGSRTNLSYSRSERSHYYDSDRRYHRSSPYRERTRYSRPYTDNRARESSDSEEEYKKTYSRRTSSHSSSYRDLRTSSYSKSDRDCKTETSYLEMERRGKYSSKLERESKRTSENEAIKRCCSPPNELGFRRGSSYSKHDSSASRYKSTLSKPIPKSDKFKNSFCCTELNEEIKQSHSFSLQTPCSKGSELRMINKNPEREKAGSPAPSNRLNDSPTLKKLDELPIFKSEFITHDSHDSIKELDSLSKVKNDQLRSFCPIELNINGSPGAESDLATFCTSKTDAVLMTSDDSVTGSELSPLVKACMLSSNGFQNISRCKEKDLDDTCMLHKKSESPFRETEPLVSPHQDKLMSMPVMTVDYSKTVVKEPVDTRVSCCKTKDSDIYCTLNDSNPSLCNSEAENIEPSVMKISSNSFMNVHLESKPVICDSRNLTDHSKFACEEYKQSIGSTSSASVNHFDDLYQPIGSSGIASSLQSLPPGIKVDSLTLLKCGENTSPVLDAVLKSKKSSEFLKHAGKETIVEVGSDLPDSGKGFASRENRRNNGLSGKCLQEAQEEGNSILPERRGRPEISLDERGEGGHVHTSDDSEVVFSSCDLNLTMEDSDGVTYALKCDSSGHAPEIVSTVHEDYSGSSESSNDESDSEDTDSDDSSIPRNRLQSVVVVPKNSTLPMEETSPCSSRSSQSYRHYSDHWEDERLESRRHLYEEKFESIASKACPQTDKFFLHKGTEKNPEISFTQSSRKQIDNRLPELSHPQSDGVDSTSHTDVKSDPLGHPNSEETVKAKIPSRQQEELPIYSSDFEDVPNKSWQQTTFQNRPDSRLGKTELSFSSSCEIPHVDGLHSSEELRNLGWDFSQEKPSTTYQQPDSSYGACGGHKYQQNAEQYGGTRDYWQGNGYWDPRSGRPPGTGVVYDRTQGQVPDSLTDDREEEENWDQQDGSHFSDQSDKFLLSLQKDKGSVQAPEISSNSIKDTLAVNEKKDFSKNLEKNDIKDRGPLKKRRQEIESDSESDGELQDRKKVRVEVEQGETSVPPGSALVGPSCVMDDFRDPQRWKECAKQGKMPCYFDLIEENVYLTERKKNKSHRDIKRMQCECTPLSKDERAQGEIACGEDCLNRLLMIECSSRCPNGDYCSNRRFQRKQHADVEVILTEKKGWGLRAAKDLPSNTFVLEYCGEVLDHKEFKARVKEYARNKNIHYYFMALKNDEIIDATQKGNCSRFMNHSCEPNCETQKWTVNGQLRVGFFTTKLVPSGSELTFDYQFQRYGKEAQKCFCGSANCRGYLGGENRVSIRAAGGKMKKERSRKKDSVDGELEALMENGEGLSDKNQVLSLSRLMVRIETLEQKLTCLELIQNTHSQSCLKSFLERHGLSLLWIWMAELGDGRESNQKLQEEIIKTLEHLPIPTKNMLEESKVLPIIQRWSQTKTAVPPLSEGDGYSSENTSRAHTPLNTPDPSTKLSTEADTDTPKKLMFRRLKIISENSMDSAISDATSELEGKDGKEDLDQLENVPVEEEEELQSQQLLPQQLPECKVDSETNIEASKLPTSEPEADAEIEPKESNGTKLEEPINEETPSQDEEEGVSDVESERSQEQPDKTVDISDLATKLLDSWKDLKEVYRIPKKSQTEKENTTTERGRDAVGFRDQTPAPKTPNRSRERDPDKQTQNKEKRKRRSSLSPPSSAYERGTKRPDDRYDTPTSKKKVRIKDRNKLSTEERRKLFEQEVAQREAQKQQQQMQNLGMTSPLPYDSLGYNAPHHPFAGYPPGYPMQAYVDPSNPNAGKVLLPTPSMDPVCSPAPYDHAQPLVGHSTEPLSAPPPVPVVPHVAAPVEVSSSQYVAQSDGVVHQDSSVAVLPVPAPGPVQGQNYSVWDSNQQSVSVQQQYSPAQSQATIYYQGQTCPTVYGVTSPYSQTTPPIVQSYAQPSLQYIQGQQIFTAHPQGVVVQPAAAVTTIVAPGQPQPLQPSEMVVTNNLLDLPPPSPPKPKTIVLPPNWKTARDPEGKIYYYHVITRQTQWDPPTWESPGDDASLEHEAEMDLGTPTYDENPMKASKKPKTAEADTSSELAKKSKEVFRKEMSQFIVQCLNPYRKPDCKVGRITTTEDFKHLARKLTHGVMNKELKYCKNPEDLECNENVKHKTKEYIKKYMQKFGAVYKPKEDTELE
Chain of Macrophage colony-stimulating factor 1 receptor (Homo sapiens) (P07333 whole entry): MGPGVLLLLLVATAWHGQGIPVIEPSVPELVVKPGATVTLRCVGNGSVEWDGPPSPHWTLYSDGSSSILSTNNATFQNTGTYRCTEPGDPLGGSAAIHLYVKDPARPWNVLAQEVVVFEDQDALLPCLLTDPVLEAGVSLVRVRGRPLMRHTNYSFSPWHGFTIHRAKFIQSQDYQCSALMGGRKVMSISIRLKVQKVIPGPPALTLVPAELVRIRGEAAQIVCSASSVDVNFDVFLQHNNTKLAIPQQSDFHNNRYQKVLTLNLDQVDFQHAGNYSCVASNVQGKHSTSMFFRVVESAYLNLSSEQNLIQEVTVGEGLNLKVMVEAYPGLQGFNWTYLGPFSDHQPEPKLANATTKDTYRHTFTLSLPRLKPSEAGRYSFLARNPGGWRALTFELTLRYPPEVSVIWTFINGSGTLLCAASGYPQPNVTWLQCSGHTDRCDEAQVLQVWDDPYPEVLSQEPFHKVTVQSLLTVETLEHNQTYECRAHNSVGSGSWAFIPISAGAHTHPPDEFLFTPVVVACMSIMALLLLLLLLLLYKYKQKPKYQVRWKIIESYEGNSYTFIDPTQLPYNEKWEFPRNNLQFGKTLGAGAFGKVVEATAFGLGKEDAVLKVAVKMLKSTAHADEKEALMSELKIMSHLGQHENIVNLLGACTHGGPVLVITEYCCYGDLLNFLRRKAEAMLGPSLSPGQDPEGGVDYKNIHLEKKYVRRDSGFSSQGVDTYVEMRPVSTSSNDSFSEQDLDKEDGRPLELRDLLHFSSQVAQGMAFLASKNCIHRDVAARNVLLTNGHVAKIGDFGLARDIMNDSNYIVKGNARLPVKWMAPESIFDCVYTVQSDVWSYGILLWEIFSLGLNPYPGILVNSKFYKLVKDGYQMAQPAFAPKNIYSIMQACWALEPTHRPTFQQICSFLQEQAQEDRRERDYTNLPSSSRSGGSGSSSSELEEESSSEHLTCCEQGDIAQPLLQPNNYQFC
Chain of Glycogen synthase kinase-3 beta (P49841 whole entry, looked up): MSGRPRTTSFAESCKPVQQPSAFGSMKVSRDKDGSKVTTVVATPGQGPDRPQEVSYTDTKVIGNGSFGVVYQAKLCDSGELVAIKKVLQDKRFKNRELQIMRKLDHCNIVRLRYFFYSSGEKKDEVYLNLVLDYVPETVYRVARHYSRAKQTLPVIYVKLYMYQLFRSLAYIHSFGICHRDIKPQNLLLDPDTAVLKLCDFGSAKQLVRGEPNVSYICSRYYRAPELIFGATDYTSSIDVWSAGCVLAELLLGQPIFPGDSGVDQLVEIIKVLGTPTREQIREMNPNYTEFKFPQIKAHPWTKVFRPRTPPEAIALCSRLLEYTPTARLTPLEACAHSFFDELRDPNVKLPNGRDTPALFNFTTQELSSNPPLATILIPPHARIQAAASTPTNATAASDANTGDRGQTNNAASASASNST

Take `Cn1cc(-n2cnc3c(NCc4nc5cc(Cl)c(Cl)cc5[nH]4)nc(N4CCOCC4)nc32)cn1`: in experiment [1], the % of control is -0.947%.

As for `CC(=O)c1cc(-c2ccccc2OCC2CC2)c2ncccn12`, the % of control in experiment [2] was determined as 106%.

For `Cc1cc(F)c(C(=O)Nc2cccc(-c3nncn3C(C)C)n2)cc1-n1cnc(C2CC2)c1`, the % of control in [3] is 100%.

Take `O=C(NOC[C@H](O)CO)c1ccc(F)c(F)c1Nc1ccc(I)cc1F`: the % of control in experiment [4] is 72%.

Turning to `CNC(=O)Nc1ccc(-c2nc(N3CC4CCC(C3)O4)c3cnn(C4CCC5(CC4)OCCO5)c3n2)cc1`, the % of control in experiment [5] stood at 79%.

As to `CC[C@@H]1[C@H](F)C(=O)N[C@@H]1COc1nccc2cc(C(N)=O)c(OC)cc12` [ZIMLOVISERTIB], the % of inhibition is -12.6% in experiment [6] (at 0.01 µM); 9.8% in experiment [6] (at 0.04 µM); -2.6% in experiment [6] (at 0.2 µM); 3.4% in experiment [6] (at 1 µM); -20.5% in [6] (at 5 µM); 8.7% in [7] (at 0.01 µM). Besides, the % of inhibition in experiment [7] (at 0.04 µM) was determined as 3.4%; in experiment [7] (at 0.2 µM), 5%; in experiment [7] (at 1 µM), 5.9%; in experiment [7] (at 5 µM), 34.9%.

In [8], `CNCCN1CCC(c2cc(CN(C)C(=O)c3cccc(Oc4ccccc4)c3)ccn2)CC1` showed a % activity of over 90%.

`COc1cc(Nc2nc(C)cc(-c3cnn4nc(OC)ccc34)n2)cc(C(F)(F)F)c1`: in [9], the % of control is 93%.

On to `Cn1cc(Nc2nccc(N3CC4CCC(C3)N4C(=O)[C@@H]3CC3(F)F)n2)cn1`, for which the % of inhibition in experiment [10] was 91%; in experiment [11], 59%.

For `Nc1cnc(N2CCc3cc(S(=O)(=O)Nc4c(F)cc(Cl)cc4F)cc(N4CCCC4=O)c32)nc1` [TP-020n], the % of control in experiment [12] was determined as 100%.
